Source: patent US11339163B2, “BRaf inhibitors and use thereof for treatment of cutaneous reactions” (Lutris Pharma Ltd., priority 2017, dated 2022)

Assays:
Escherichia coli = experiment: In vitro Ames test, reverse mutation assay; format: cell-based
BRAF (V600E) = BRAF (V600E) (Homo sapiens, UniProt P15056, V600E); experiment: BRaf inhibitory activity assay; format: biochemical; details: read-out: Compound IC50 BRAF (V600E)
Procedure: (§1) In this assay, the BRaf inhibitory activity of the compound of formula I, where
(§2) Reactions were carried out at 10 μM ATP.

wild-type BRaf = wild-type BRaf (Homo sapiens, UniProt P15056); experiment: BRaf inhibitory activity assay; format: biochemical; details: read-out: Compound IC50 BRAF
Procedure: as §1, §2

[1] = tested on: BALB/c-3T3 mouse fibroblasts; experiment: 3T3 neutral red uptake phototoxicity assay; format: cell-based; details: mouse, 24 h
Procedure: Therefore, the compounds of the present disclosure were screened for phototoxicity using the 3T3 natural red uptake assay.
In brief, BALB/c-3T3 mouse fibroblasts (originally obtained from ATCC) were seeded in 96-well plates at 12,000 cells per well, and grown for 24 hr. Test compounds and the positive control (chlorpromazine) were solubilized and serially diluted in DMSO. The negative control (histidine) was solubilized and diluted in HBSS. A dilution for all test articles was then made into HBSS at the final testing concentrations. At the start of the assay, the growth medium was removed from the plates and replaced with test agent dilution. Six replicates were used for each concentration. Cells were incubated in the dark with test article for 1 h, exposed to UVA light (2.5 J/cm2 over 18 min) and incubated 24 hrs. in the dark. A parallel non-irradiated plate was treated similarly, except it was stored in the dark, rather than illuminated.
For Neutral Red staining, medium was removed and fresh medium containing 25 μg/mL of Neutral Red (Sigma) was added. After three hours incubation, the cells were washed with PBS, and the cellular dye was solubilized with 1% acetic acid in 50% ethanol. Cellular Neutral Red was measured by its absorbance at 540 nm.
Data analysis: An IC50 (concentration that causes 50% reduction in viability) was calculated for each condition by linear interpolation.
A Photo-Irritation Factor (PIF) was calculated: PIF=IC50(−Irr)/IC50(+Irr)
PIF>5 indicates phototoxicity; 2<PIF<5 indicates probable phototoxicity; PIF<2 indicates no phototoxicity
In addition, the Mean Photo Effect (MPE) was calculated by comparison of the complete concentration-response curves. MPE is a weighted average of the difference in response of equivalent doses normalized by the shift in IC50.
MPE>0.15 indicates phototoxicity; 0.1<MPE<0.15 indicates probable phototoxicity; MPE<0.1 indicates no phototoxicity.

[2] = BCOP study (eye irritation)
minipigs = experiment: MTD Dermal Minipigs; format: in vivo; details: 5 mg/kg/day for up to 6 days
MST1(h) = MST1(h) (Homo sapiens, UniProt Q13043); experiment: KinaseProfiler kinase selectivity assay; format: biochemical
Procedure: (§3) All compounds were prepared to 50× final assay concentration in 100% DMSO. This working stock of the compound was added to the assay well as the first component in the reaction, followed by the remaining components. In the standard KinaseProfiler™ service, there is no pre-incubation step between the compound and the kinase prior to initiation of the reaction. The positive control wells contain all components of the reaction, except the compound of interest; however, DMSO (at a final concentration of 2%) is included in these wells to control for solvent effects. The blank wells contain all components of the reaction, with a reference inhibitor replacing the compound of interest. This abolishes kinase activity and establishes the base-line (0% kinase activity remaining).

CK2α2(h) = CK2α2(h) (Homo sapiens, UniProt P19784); experiment: KinaseProfiler kinase selectivity assay; format: biochemical
Procedure: as §3

IRAK4(h) = IRAK4(h) (Homo sapiens, UniProt Q9NWZ3); experiment: KinaseProfiler kinase selectivity assay; format: biochemical
Procedure: as §3

CHK1(h) = CHK1(h) (Homo sapiens, UniProt O14757); experiment: KinaseProfiler kinase selectivity assay; format: biochemical
Procedure: as §3

p70S6K(h) = p70S6K(h) (Homo sapiens, UniProt P23443); experiment: KinaseProfiler kinase selectivity assay; format: biochemical
Procedure: as §3

GSK3β(h) = GSK3β(h) (Homo sapiens, UniProt P49841); experiment: KinaseProfiler kinase selectivity assay; format: biochemical
Procedure: as §3

KDR(h) = KDR(h) (Homo sapiens, UniProt P35968); experiment: KinaseProfiler kinase selectivity assay; format: biochemical
Procedure: as §3

PKG1α(h) = PKG1α(h) (Homo sapiens, UniProt Q13976); experiment: KinaseProfiler kinase selectivity assay; format: biochemical
Procedure: as §3

CK1γ1(h) = CK1γ1(h) (Homo sapiens, UniProt Q9HCP0); experiment: KinaseProfiler kinase selectivity assay; format: biochemical
Procedure: as §3

Rse(h) = Rse(h) (Homo sapiens, UniProt Q06418); experiment: KinaseProfiler kinase selectivity assay; format: biochemical
Procedure: as §3

[3] = tested on: ERK phosphorylation in HEKa cells; experiment: phospho-ERK in HEKa cells following EGFR inhibitors (Western blot); format: cell-based, human
Procedure: Human normal keratinocyte cells HEKa were purchased from Gibco Rhenium and seeded in 10 cm dishes (300,000 cells/dish) and incubated overnight at 37° C., 5% CO2. Next morning, the medium was replaced to a starvation medium for 2 hours and then the cells were treated for 2 additional hours with the test compounds. Post incubation, the cells were lyzed with RIPA and the protein extracts were analyzed by western blot for Phospho-ERK and total ERK. Untreated cells and 0.1% DMSO treated cells were used as negative control. HKGS growth factors was used as a positive control.
Western blot: 7.5 μg of total extract was loaded on 10% acrylamide gel. Following transfer, the membranes were blocked with TBST/5% skimmed milk and then incubated with Mouse anti Phospho-ERK (1:1000 in TBST 5% BSA, ON at 4° C.) and goat anti Mouse HRP (1:10,000 in TBST 5% BSA, 1-hour RT). The membranes were exposed using SuperSignal West Pico Chemiluminescent Substrate.
The HRP was then inactivated by incubating the membranes for 1 hour with 0.5% sodium azide Following washes and ECL exposure in order to ensure absence of signal, the membranes were re-blocked for 15 min with TBST/5% skimmed milk and then incubated with Rabbit anti total ERK2 (1:500 in TBST 5% BSA, ON at 4° C.), goat anti Rabbit HRP (1:5,000 in TBST 5% BSA, 1-hour RT) and finally exposed using the SuperSignal West Pico Chemiluminescent Substrate. The films were scanned and the signal were quantified using ImageJ software. The results were calculated as Phospho-ERK/total ERK.
HKGS was used as a positive control.

Chain of CK1γ1(h) (Q9HCP0 whole entry): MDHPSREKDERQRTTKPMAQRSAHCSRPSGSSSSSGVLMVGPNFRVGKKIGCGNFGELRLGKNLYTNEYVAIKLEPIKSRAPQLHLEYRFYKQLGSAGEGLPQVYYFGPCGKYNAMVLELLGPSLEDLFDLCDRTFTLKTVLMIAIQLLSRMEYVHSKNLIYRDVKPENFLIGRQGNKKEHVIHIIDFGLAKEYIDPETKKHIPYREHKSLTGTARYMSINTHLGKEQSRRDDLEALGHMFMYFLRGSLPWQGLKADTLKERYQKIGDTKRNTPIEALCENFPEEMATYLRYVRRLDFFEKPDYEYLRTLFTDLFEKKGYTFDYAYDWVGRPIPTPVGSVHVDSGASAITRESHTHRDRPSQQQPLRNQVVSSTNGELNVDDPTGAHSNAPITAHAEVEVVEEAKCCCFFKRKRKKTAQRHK
Chain of IRAK4(h) (Q9NWZ3 whole entry): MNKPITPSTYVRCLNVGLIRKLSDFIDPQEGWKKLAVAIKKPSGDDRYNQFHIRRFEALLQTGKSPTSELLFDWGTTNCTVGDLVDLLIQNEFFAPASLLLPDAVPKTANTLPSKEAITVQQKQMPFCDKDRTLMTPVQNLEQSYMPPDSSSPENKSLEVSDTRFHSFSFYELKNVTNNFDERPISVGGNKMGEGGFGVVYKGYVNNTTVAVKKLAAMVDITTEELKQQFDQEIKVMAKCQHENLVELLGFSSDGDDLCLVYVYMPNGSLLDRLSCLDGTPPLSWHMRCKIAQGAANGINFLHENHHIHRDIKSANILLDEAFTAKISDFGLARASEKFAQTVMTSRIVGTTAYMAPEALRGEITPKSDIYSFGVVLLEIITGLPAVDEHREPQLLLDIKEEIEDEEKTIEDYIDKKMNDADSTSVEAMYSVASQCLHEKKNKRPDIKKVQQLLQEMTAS
Chain of CK2α2(h) (P19784 whole entry): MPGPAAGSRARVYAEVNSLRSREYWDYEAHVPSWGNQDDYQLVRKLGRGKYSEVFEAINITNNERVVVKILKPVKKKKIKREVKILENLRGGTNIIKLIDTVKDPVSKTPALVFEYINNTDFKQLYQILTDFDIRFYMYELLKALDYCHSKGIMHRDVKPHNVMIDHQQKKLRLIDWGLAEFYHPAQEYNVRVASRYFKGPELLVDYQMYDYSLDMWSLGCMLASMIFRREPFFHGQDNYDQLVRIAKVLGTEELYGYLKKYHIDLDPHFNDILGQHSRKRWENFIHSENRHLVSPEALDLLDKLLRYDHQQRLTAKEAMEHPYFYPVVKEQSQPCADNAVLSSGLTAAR
Chain of Rse(h) (Q06418 41-890): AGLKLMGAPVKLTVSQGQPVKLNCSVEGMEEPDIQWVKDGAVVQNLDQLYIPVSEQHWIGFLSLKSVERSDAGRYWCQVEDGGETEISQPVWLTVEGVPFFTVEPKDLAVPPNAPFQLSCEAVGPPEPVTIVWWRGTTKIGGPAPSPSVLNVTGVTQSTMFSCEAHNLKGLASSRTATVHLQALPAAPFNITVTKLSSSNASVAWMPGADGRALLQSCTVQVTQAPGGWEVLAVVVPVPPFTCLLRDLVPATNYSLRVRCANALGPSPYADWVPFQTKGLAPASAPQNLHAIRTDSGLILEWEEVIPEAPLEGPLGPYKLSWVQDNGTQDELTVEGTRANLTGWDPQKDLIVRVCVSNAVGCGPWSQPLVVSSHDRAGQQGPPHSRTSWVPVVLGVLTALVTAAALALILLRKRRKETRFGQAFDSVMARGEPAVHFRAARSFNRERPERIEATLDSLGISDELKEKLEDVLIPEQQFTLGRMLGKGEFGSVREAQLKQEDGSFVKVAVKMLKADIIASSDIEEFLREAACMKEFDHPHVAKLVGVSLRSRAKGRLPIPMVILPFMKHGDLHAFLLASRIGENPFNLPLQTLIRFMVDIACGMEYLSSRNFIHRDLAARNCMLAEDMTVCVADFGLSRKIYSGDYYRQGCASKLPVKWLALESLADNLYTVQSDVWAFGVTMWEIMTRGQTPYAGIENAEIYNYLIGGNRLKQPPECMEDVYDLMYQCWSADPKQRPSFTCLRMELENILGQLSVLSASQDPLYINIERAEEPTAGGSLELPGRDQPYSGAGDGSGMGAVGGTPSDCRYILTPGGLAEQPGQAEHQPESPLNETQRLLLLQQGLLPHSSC
Chain of MST1(h) (Q13043 whole entry): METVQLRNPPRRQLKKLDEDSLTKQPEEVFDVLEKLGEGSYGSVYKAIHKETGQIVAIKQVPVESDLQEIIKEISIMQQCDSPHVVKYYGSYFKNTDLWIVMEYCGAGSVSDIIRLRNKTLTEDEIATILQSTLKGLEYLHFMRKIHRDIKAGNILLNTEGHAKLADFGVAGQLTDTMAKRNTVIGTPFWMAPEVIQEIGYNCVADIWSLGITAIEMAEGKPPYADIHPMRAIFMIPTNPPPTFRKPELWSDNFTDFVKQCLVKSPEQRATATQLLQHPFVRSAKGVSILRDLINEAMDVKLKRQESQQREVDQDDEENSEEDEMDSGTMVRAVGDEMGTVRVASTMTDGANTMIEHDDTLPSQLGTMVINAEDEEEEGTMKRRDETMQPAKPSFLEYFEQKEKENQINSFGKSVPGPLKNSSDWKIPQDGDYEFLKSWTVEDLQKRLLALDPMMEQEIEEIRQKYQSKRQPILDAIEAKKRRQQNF
Chain of GSK3β(h) (P49841 whole entry): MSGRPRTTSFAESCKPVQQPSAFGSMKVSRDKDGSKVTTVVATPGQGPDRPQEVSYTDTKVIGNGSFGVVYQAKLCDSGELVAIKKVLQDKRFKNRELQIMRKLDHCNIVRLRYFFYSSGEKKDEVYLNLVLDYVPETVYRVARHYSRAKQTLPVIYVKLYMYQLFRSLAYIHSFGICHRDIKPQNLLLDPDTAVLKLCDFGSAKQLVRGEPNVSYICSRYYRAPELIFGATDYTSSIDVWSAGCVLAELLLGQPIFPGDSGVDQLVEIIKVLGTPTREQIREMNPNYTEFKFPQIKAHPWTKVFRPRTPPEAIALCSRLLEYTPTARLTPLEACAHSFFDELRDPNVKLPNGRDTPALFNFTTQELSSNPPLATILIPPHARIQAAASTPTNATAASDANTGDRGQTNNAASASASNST
Chain of PKG1α(h) (Q13976 whole entry): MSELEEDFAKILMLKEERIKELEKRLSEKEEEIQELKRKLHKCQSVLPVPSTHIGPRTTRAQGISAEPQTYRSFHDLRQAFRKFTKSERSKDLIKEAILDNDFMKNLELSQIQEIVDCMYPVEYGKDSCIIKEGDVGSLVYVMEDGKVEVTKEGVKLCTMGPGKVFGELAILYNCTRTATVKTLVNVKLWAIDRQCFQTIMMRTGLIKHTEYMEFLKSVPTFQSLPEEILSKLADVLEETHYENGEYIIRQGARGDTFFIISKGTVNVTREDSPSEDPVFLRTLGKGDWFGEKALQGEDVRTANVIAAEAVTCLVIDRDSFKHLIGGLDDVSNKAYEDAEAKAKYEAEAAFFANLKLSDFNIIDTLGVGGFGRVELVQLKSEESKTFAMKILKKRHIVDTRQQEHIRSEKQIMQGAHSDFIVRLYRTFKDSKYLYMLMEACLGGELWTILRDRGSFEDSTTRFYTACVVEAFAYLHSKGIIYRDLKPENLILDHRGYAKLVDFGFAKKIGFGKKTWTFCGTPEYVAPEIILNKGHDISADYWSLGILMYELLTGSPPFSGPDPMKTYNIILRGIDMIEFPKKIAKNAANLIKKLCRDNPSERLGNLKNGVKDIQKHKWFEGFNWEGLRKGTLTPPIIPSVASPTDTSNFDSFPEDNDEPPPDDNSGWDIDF
Chain of KDR(h) (P35968 20-1356): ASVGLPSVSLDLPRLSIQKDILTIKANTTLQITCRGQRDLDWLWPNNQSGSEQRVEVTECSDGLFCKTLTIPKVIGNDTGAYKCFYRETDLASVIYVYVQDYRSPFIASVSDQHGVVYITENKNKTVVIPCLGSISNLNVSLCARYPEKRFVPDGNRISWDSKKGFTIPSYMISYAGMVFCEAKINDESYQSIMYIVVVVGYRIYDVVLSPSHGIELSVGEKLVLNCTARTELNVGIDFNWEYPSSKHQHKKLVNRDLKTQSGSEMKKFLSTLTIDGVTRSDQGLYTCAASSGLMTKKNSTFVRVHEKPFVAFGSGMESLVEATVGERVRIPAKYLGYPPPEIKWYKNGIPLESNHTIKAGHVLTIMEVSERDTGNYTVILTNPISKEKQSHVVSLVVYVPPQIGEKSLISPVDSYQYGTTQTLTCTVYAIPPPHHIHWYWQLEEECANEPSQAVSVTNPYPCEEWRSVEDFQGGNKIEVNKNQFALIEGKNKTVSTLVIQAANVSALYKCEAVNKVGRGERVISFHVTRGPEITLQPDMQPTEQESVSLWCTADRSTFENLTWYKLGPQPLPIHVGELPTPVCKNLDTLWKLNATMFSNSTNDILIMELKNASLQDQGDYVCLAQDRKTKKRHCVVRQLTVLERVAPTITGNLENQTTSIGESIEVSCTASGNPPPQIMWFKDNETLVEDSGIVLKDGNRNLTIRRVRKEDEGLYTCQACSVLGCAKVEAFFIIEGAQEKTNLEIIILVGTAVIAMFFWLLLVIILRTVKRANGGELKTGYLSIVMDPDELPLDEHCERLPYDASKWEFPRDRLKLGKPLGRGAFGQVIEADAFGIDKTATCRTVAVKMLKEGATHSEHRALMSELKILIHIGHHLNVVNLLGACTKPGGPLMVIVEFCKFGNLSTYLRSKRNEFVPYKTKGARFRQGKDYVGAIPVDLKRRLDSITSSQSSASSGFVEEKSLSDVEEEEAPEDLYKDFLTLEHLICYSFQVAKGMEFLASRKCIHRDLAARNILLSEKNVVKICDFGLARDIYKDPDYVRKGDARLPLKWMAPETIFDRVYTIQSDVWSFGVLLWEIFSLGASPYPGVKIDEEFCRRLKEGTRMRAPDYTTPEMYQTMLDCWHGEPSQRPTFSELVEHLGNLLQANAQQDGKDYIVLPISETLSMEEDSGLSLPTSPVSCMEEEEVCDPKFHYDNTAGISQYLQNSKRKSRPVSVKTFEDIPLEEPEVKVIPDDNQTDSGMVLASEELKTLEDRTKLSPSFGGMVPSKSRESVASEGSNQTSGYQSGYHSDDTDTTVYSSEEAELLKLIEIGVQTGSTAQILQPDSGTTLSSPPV

**Q.** Which “mutagenicity, Escherichia coli reverse mutation assay” value (Escherichia coli) does the source give for `Cc1ccc2c(Nc3cccc(OC(F)(F)F)c3)nccc2c1Nc1ncccc1-c1ncnc2[nH]cnc12` [LUT014] here?
**A.** not mutagenic

**Q.** And the IC50 (BRAF (V600E))?
**A.** 13.3 nM

**Q.** And the IC50 (wild-type BRaf)?
**A.** 11.7 nM

**Q.** And the “phototoxicity (3T3 NRU), stated in words” value [1]?
**A.** Lut014 is classified as non-phototoxic

**Q.** And the IVIS [2]?
**A.** ≤ 3

**Q.** What about the “classification for eye irritation or serious eye damage” value [2] of the same compound?
**A.** no classification is required

**Q.** And the tolerability (minipigs)?
**A.** well tolerated in minipigs at

**Q.** And the remaining activity at 0.01 µM (MST1(h); Lut014 @ 0.01 μM)?
**A.** 98%

**Q.** And the remaining activity at 1 µM (MST1(h); Lut014 @ 1 μM)?
**A.** 112%

**Q.** And the remaining activity at 0.01 µM (CK2α2(h); Lut014 @ 0.01 μM)?
**A.** 98%

**Q.** What about the remaining activity at 1 µM (CK2α2(h); Lut014 @ 1 μM) of the same compound?
**A.** 92%

**Q.** And the remaining activity at 0.01 µM (IRAK4(h); Lut014 @ 0.01 μM)?
**A.** 94%

**Q.** What about the remaining activity at 1 µM (IRAK4(h); Lut014 @ 1 μM) of the same compound?
**A.** 109%

**Q.** And the remaining activity at 0.01 µM (CHK1(h); Lut014 @ 0.01 μM)?
**A.** 100%

**Q.** And the remaining activity at 1 µM (CHK1(h); Lut014 @ 1 μM)?
**A.** 114%

**Q.** And the remaining activity at 0.01 µM (p70S6K(h); Lut014 @ 0.01 μM)?
**A.** 108%

**Q.** What about the remaining activity at 1 µM (p70S6K(h); Lut014 @ 1 μM) of the same compound?
**A.** 97%

**Q.** And the remaining activity at 0.01 µM (GSK3β(h); Lut014 @ 0.01 μM)?
**A.** 105%

**Q.** And the remaining activity at 1 µM (GSK3β(h); Lut014 @ 1 μM)?
**A.** 98%

**Q.** What about the remaining activity at 0.01 µM (KDR(h); Lut014 @ 0.01 μM) of the same compound?
**A.** 96%

**Q.** What about the remaining activity at 1 µM (KDR(h); Lut014 @ 1 μM) of the same compound?
**A.** 79%

**Q.** And the remaining activity at 0.01 µM (PKG1α(h); Lut014 @ 0.01 μM)?
**A.** 99%

**Q.** And the remaining activity at 1 µM (PKG1α(h); Lut014 @ 1 μM)?
**A.** 111%

**Q.** And the remaining activity at 0.01 µM (CK1γ1(h); Lut014 @ 0.01 μM)?
**A.** 94%

**Q.** And the remaining activity at 1 µM (CK1γ1(h); Lut014 @ 1 μM)?
**A.** 101%

**Q.** And the remaining activity at 0.01 µM (Rse(h); Lut014 @ 0.01 μM)?
**A.** 106%

**Q.** What about the remaining activity at 1 µM (Rse(h); Lut014 @ 1 μM) of the same compound?
**A.** 113%

**Q.** And the “increase of phospho-ERK compared to the DMSO treated cells” value [3]?
**A.** 200-800%

**Q.** What about the “phospho-ERK when added to cells treated with Erlotinib” value [3] of the same compound?
**A.** increased

**Q.** And the “phospho-ERK when added to cells treated with cetuximab” value [3]?
**A.** increased
